Reference: patent publication US12077503B2, “Substituted cyclic amides and their use as herbicides” (FMC CORPORATION, priority 2015, dated 2024)

Key:
Assay type in all cases: in vivo
[1] = system: ragweed (common ragweed, Ambrosia elatior); assay: Test A preemergence; settings: Ambrosia artemisiifolia, pre-emergence, 240 h, preemergence, read-out: Ragweed plant response rating; for pest or weed control at 125 g/ha: 125 g ai/ha, approx. 10 d; for pest or weed control at 500 g/ha: 500 g ai/ha
How it was run: (§1)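 Treatment is preemergence as a directed soil spray after planting, or postemergence at the one- to two-leaf stage, with test chemical in a non-phytotoxic solvent mixture plus surfactant. Plants stay in the greenhouse about 10 d before visual injury scoring on a 0 to 100 scale versus untreated controls.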

[2] = system: pigweed (Amaranthus retroflexus); assay: Test A preemergence; settings: Amaranthus retroflexus, pre-emergence, 240 h, preemergence, read-out: Pigweed plant response rating; for pest or weed control at 125 g/ha: 125 g ai/ha, approx. 10 d; for pest or weed control at 500 g/ha: 500 g ai/ha
[3] = system: giant foxtail (Setaria faberii); assay: Test A preemergence; settings: Setaria faberi, pre-emergence, 240 h; for pest or weed control at 125 g/ha: 125 g ai/ha; for pest or weed control at 500 g/ha: 500 g ai/ha
How it was run: as §1

[4] = system: ryegrass, Italian (Italian ryegrass, Lolium multiflorum); assay: Test A preemergence; settings: Lolium multiflorum, pre-emergence, 240 h, preemergence, read-out: Ryegrass, Italian plant response rating; for pest or weed control at 125 g/ha: 125 g ai/ha, approx. 10 d; for pest or weed control at 500 g/ha: 500 g ai/ha
How it was run: as §1

Kochia (Kochia scoparia) [5] = assay: Test A preemergence; settings: Bassia scoparia, pre-emergence, 240 h, preemergence, read-out: Kochia plant response rating; for pest or weed control at 125 g/ha: 125 g ai/ha, approx. 10 d; for pest or weed control at 500 g/ha: 500 g ai/ha
How it was run: as §1

[6] = system: barnyardgrass (Echinochloa crus-galli); assay: Test A preemergence; settings: Echinochloa crus-galli, pre-emergence, 240 h; for pest or weed control at 125 g/ha: 125 g ai/ha; for pest or weed control at 500 g/ha: 500 g ai/ha
How it was run: as §1

corn (Zea mays) = assay: Test A postemergence; settings: Zea mays, post-emergence, 240 h, postemergence, read-out: Corn plant response rating; for plant injury at 125 g/ha: 125 g ai/ha, visual injury on 0 to 100 scale (0 no effect, 100 complete control), approx. 10 d; for plant injury at 500 g/ha: 500 g ai/ha, 0 to 100 scale, 0 is no effect, 100 is complete control
How it was run: as §1

[7] = system: ragweed (common ragweed, Ambrosia elatior); assay: Test A postemergence; settings: Ambrosia artemisiifolia, post-emergence, 240 h, postemergence, read-out: Ragweed plant response rating; for pest or weed control at 125 g/ha: 125 g ai/ha, visual injury on 0 to 100 scale (0 no effect, 100 complete control), approx. 10 d; for pest or weed control at 500 g/ha: 500 g ai/ha, 0 to 100 scale, 0 is no effect, 100 is complete control
How it was run: as §1

[8] = system: pigweed (Amaranthus retroflexus); assay: Test A postemergence; settings: Amaranthus retroflexus, post-emergence, 240 h, postemergence, read-out: Pigweed plant response rating; for pest or weed control at 125 g/ha: 125 g ai/ha, visual injury on 0 to 100 scale (0 no effect, 100 complete control), approx. 10 d; for pest or weed control at 500 g/ha: 500 g ai/ha, 0 to 100 scale, 0 is no effect, 100 is complete control
How it was run: as §1

[9] = system: wheat (Triticum aestivum); assay: Test A postemergence; settings: Triticum aestivum, post-emergence, 240 h, postemergence, read-out: Wheat plant response rating; for plant injury at 125 g/ha: 125 g ai/ha, visual injury on 0 to 100 scale (0 no effect, 100 complete control), approx. 10 d; for plant injury at 500 g/ha: 500 g ai/ha, 0 to 100 scale, 0 is no effect, 100 is complete control
How it was run: as §1

[10] = system: giant foxtail (Setaria faberii); assay: Test A postemergence; settings: Setaria faberi, post-emergence, 240 h, postemergence, read-out: Foxtail, Giant plant response rating; for pest or weed control at 125 g/ha: 125 g ai/ha, visual injury on 0 to 100 scale (0 no effect, 100 complete control), approx. 10 d; for pest or weed control at 500 g/ha: 500 g ai/ha, 0 to 100 scale, 0 is no effect, 100 is complete control
How it was run: as §1

[11] = system: Galium (catchweed bedstraw, Galium aparine); assay: Test A postemergence; settings: Galium, post-emergence, 240 h, postemergence, read-out: Galium plant response rating; for pest or weed control at 125 g/ha: 125 g ai/ha, visual injury on 0 to 100 scale (0 no effect, 100 complete control), approx. 10 d; for pest or weed control at 500 g/ha: 500 g ai/ha, 0 to 100 scale, 0 is no effect, 100 is complete control
How it was run: as §1

[12] = system: ryegrass, Italian (Italian ryegrass, Lolium multiflorum); assay: Test A postemergence; settings: Lolium multiflorum, post-emergence, 240 h, postemergence, read-out: Ryegrass, Italian plant response rating; for pest or weed control at 125 g/ha: 125 g ai/ha, visual injury on 0 to 100 scale (0 no effect, 100 complete control), approx. 10 d; for pest or weed control at 500 g/ha: 500 g ai/ha, 0 to 100 scale, 0 is no effect, 100 is complete control
How it was run: as §1

Kochia (Kochia scoparia) [13] = assay: Test A postemergence; settings: Bassia scoparia, post-emergence, 240 h, postemergence, read-out: Kochia plant response rating; for pest or weed control at 125 g/ha: 125 g ai/ha, visual injury on 0 to 100 scale (0 no effect, 100 complete control), approx. 10 d; for pest or weed control at 500 g/ha: 500 g ai/ha, 0 to 100 scale, 0 is no effect, 100 is complete control
How it was run: as §1

[14] = system: barnyardgrass (Echinochloa crus-galli); assay: Test A postemergence; settings: Echinochloa crus-galli, post-emergence, 240 h, postemergence, read-out: Barnyardgrass plant response rating; for pest or weed control at 125 g/ha: 125 g ai/ha, visual injury on 0 to 100 scale (0 no effect, 100 complete control), approx. 10 d; for pest or weed control at 500 g/ha: 500 g ai/ha, 0 to 100 scale, 0 is no effect, 100 is complete control
How it was run: as §1

[15] = 0 to 100 scale where 0 is no effect and 100 is complete control
[16] = visual injury rating about 10 d after treatment, 0 to 100 scale (0 no effect, 100 complete control)

SMILES | pest or weed control at 125 g/ha [1, 15] [%] | pest or weed control at 125 g/ha [2, 15] [%] | pest or weed control at 125 g/ha [4, 15] [%] | pest or weed control at 125 g/ha (Kochia (Kochia scoparia) [5]; [15]) [%] | plant injury at 125 g/ha (corn (Zea mays)) [%] | plant injury at 500 g/ha (corn (Zea mays)) [%] | pest or weed control at 125 g/ha [7] [%] | pest or weed control at 500 g/ha [7] [%] | pest or weed control at 125 g/ha [8] [%] | pest or weed control at 500 g/ha [8] [%] | plant injury at 125 g/ha [9] [%] | plant injury at 500 g/ha [9] [%] | pest or weed control at 125 g/ha [10] [%] | pest or weed control at 500 g/ha [10] [%] | pest or weed control at 125 g/ha [11] [%] | pest or weed control at 500 g/ha [11] [%] | pest or weed control at 125 g/ha [12] [%] | pest or weed control at 500 g/ha [12] [%] | pest or weed control at 125 g/ha (Kochia (Kochia scoparia) [13]) [%] | pest or weed control at 500 g/ha (Kochia (Kochia scoparia) [13]) [%] | other results
CCc1cc(CC)cc([C@H]2CNC(=O)[C@@H]2C(=O)Nc2ccccc2F)c1 [Compound 1138] | 0 | 0 | 30 | 0 | 50 | 80 | 0 | 0 | 0 | 0 | 30 | 70 | 50 | 90 | 20 | 50 | 0 | 50 | 0 | 0 | pest or weed control at 500 g/ha [1, 15]: 0%; pest or weed control at 500 g/ha [2, 15]: 0%; pest or weed control at 125 g/ha ([3]; preemergence, 0 to 100 scale where 0 is no effect and 100 is complete control, approx. 10 d, read-out: Foxtail, Giant plant response rating): 90%; pest or weed control at 500 g/ha ([3]; preemergence, 0 to 100 scale where 0 is no effect and 100 is complete control, read-out: Foxtail, Giant plant response rating): 90%; pest or weed control at 500 g/ha [4, 15]: 50%; pest or weed control at 500 g/ha (Kochia (Kochia scoparia) [5]; [15]): 80%; pest or weed control at 125 g/ha ([6]; preemergence, 0 to 100 scale where 0 is no effect and 100 is complete control, approx. 10 d, read-out: Barnyardgrass plant response rating): 90%; pest or weed control at 500 g/ha ([6]; preemergence, 0 to 100 scale where 0 is no effect and 100 is complete control, read-out: Barnyardgrass plant response rating): 90%; pest or weed control at 125 g/ha [14]: 90%; pest or weed control at 500 g/ha [14]: 90%
CCc1cccc([C@H]2CCNC(=O)[C@@H]2C(=O)Nc2cccc(F)c2F)c1 [Compound 1058] | 0 | 0 | 0 | 0 | 0 | 30 | 80 | 90 | 0 | 0 | 0 | 0 | 0 | 0 | 50 | 60 | 0 | 0 | 0 | 20 | pest or weed control at 500 g/ha [1, 16]: 0%; pest or weed control at 500 g/ha [2, 16]: 0%; pest or weed control at 125 g/ha ([3]; Preemergence, visual injury rating after approximately 10 d, read-out: Foxtail, Giant plant response rating (0 to 100 scale, 0 is no effect, 100 is complete control)): 90%; pest or weed control at 500 g/ha ([3]; preemergence, visual injury rating about 10 d after treatment, 0 to 100 scale (0 no effect, 100 complete control), read-out: Foxtail, Giant plant response rating): 100%; pest or weed control at 500 g/ha [4, 16]: 40%; pest or weed control at 500 g/ha (Kochia (Kochia scoparia) [5]; [16]): 30%; pest or weed control at 125 g/ha ([6]; Preemergence, visual injury rating after approximately 10 d, read-out: Barnyardgrass plant response rating (0 to 100 scale, 0 is no effect, 100 is complete control)): 90%; pest or weed control at 500 g/ha ([6]; preemergence, visual injury rating about 10 d after treatment, 0 to 100 scale (0 no effect, 100 complete control), read-out: Barnyardgrass plant response rating): 100%; pest or weed control at 125 g/ha [14]: 70%; pest or weed control at 500 g/ha [14]: 90%
